Data taken from US6521446B2, “Biosensor” (Duke University, priority 1997, dated 2003).

Tests used:
[1] = Sugar binding Kd of mutant proteins: L-Arabinose; settings: Table 2, binding-site mutants
Method: (§1) Measurement of Glucose and Galactose Binding. Sugar binding was determined by measuring changes in fluorescence of the conjugated fluorophores on a SLM-Aminco-Bowman series-2 fluorimeter at 25±1° C. […] For titrations, the excitation and emission slit widths were set to 4 and 16 nm, respectively (IANBD:λex=469 nm, λcm=540 nm; acrylodan: λex=392 nm, λem=520 nm). Under these conditions the instrument noise was <1% of the fluorescence signal observed in saturating solutions of glucose. Experimentally observed binding curves were fit to a binding isotherm:
(§2) where ΔF is the change in fluorescence, ΔFmax the fluorescence change at saturating concentrations of ligand, Kd the binding constant, and S the concentration of ligand.
(§3) (Primary binding surface in E. coli GBP: Asn14, Asn91, His152, Asp154, Arg158, Asn211, Asp236, Asn256; secondary binding surface in E coli GBP: Tyr10, Phe16, Met17, Asn66, Ser112, Ser115, Trp183, Asn210, Met214, Gln261, Tyr295). In order to change the binding constant for glucose, residues in both surfaces have been systematically mutated, either singly or in pairs. The Asp154Ala, Trp183Ala (D154A+W183A) double mutant has a binding constant of 7.2 mM. The dynamic range is thus matched for operating in physiologically relevant glucose concentration ranges.

[2] = Sugar binding Kd of mutant proteins: D-Mannose; settings: Table 2, binding-site mutants
Method: as §1, §2, §3

[3] = Sugar binding Kd of mutant proteins: D-Fructose; settings: Table 2, binding-site mutants
Method: as §1, §2, §3

[4] = Galactose binding, titration followed by fluorescence change of the conjugated fluorophore
Method: (§4) Measurement of Glucose and Galactose Binding. Sugar binding was determined by measuring changes in fluorescence of the conjugated fluorophores on a SLM-Aminco-Bowman series-2 fluorimeter at 25±1° C. Glucose or galactose (Sigma) was titrated into a 50 nM conjugated protein solution in 0.1 M NaCl, 50 mM phosphate (pH 7.0), which was continuously mixed with a magnetic stirrer. For titrations, the excitation and emission slit widths were set to 4 and 16 nm, respectively (IANBD:λex=469 nm, λcm=540 nm; acrylodan: λex=392 nm, λem=520 nm). Under these conditions the instrument noise was <1% of the fluorescence signal observed in saturating solutions of glucose. Experimentally observed binding curves were fit to a binding isotherm:
as §2

[5] = Glucose binding, titration followed by fluorescence change of the conjugated fluorophore
Method: as §4, §2

[6] = Sugar binding Kd of mutant proteins: D-Xylose; settings: Table 2, binding-site mutants
Method: as §1, §2, §3

[7] = Fluorescence of glucose-saturated GBP conjugate relative to apoprotein; type: binding
Method: as §4, with “isotherm: […]” for “isotherm:”

[8] = Sugar binding Kd of mutant proteins: Maltose; settings: Table 2, binding-site mutants
Method: as §1, §2, §3

[9] = Sugar binding Kd of mutant proteins: D-Fucose; settings: Table 2, binding-site mutants
Method: as §1, §2, §3

[10] = Sugar binding Kd of mutant proteins: Lactose; settings: Table 2, binding-site mutants
Method: as §1, §2, §3

[11] = Table 2, binding-site mutants, read-out: Kd, D-Galactose
[12] = Table 2, binding-site mutants, read-out: Kd, D-Glucose
[13] = IANBD conjugate, relative to wild-type
[14] = IANBD conjugate, read-out: Kd(Gal)
[15] = IANBD conjugate, read-out: Kd(Glc)
[16] = acrylodan conjugate, read-out: Kd(Gal)
[17] = acrylodan conjugate, read-out: Kd(Glc)
[18] = mutants in the allosterically signaling construct 255C, read-out: binding constant for glucose

Substance S112A: E. coli GBP binding-site mutant has a Kd [1] of 870 µM, a Kd [2] of 670 µM and a Kd [3] of 15000 µM. It also gave a Kd [4, 11] of 24.5 µM, a Kd [5, 12] of 7.2 µM and a Kd [6] of 4200 µM.
For “H152C: E. coli GBP single cysteine mutant in the binding pocket, nonallosteric reporter site, conjugated to IANBD or acrylodan”, the increase in fluorescence ([7]; IANBD conjugate) was 4 fold, the “R: ratio of fluorescence of fully saturated GBP (10 mM glucose) to apoprotein” value (“R: ratio” below) ([7]; IANBD conjugate) was 4.0 and the “R: ratio” value ([7]; acrylodan conjugate) was 1.0. The “increase in the binding constant for galactose” value [4, 13] was about 500 fold, the Kd [4, 14] was 160 µM and the “increase in the binding constant for glucose” value [5, 13] was about 100 fold. The Kd [5, 15] was 20 µM.
With “D257C: E. coli GBP single cysteine mutant in the hinge region, fluorophore conjugated” the “R: ratio” value ([7]; IANBD conjugate) was 1.6, the “R: ratio” value ([7]; acrylodan conjugate) was 0.8 and the Kd [4, 14] was 1.5 µM. The Kd [4, 16] was 0.5 µM, the Kd [5, 15] was 0.8 µM and the Kd [5, 17] was 0.5 µM.
In the case of “S112A S115A: E. coli GBP binding-site double mutant”, the Kd [1] is reported as 1100 µM, the Kd [2] is reported as 1400 µM and the Kd [4, 11] is reported as 33 µM. The Kd [8] was 3300 µM and the Kd [5, 12] was 9 µM.
Substance “Wild-type: wild type E. coli Glucose/Galactose Binding Protein (GBP) [reference compound]” has a Kd [9] of 340 µM, a Kd [10] of 1300 µM and a Kd [1] of 90 µM. The Kd [2] was 105 µM, the Kd [3] was 4700 µM and the Kd [4, 11] was 2.4 µM. For the same substance, the Kd [8] was 400 µM, the Kd ([5]; wild type GBP, read-out: Kd (glucose)) was 0.8 µM and the Kd [6] was 1400 µM.
For “acrylodan conjugate at position 255: acrylodan conjugate of the L255C GBP mutant, best allosteric signal transducer in the hinge region”, the “decrease in fluorescence upon ligand binding” value ([7]; acrylodan conjugate) was 2 fold.
In the case of F16Y: E. coli GBP binding-site mutant, the Kd [9] is reported as 6000 µM, the Kd [4, 11] is reported as 1160 µM and the Kd [5, 12] is reported as 500 µM.
“W183AY10A: GBP double mutant constructed in the allosterically signaling construct 255C” showed a Kd [5, 18] of 650 µM.
Work on N91A: E. coli GBP binding-site mutant yielded a Kd [9] of 1230 µM, a Kd [2] of 16000 µM and a Kd [4, 11] of 1080 µM. The Kd [5, 12] was 150 µM.
For “L255C: E. coli GBP single cysteine mutant in the hinge region of the allosteric flap; allosterically signaling construct 255C”, the “R: ratio” value ([7]; IANBD conjugate) was 0.8, the “R: ratio” value ([7]; acrylodan conjugate) was 0.5 and the Kd [4, 14] was 0.49 µM. It also gave a Kd [4, 16] of 0.62 µM, a Kd [5, 15] of 0.32 µM and a Kd [5, 17] of 0.43 µM. It also gave a Kd [5, 18] of 0.2 µM.
In the case of “N15C: E. coli GBP single cysteine mutant in the binding pocket, nonallosteric reporter site, conjugated to IANBD or acrylodan”, the “R: ratio” value ([7]; IANBD conjugate) is reported as 0.8, the “R: ratio” value ([7]; acrylodan conjugate) is reported as 0.7 and the Kd [4, 14] is reported as 0.1 µM. The Kd [4, 16] was 0.15 µM, the Kd [5, 15] was 0.13 µM and the “effect on the sugar binding constants” value ([5]; acrylodan and IANBD conjugates at the 15 position) was “do not greatly perturb the sugar binding constants”. For the same substance, the Kd [5, 17] was 0.17 µM.
Work on “Y10A: E. coli GBP binding-site mutant, constructed in the 255C construct” yielded a Kd [1] of 2700 µM, a Kd [2] of 7100 µM and a Kd [3] of 22000 µM. It also gave a Kd [4, 11] of 180 µM, a Kd [5, 12] of 54 µM and a Kd [5, 18] of 50 µM.
“D14A: E. coli GBP binding-site mutant at position 14” showed a Kd [1] of 7250 µM, a Kd [2] of 26000 µM and a Kd [4, 11] of 390 µM. For the same substance, the Kd [5, 12] was 290 µM.
For “Y10A D154A: E. coli GBP binding-site double mutant”, the Kd [4, 11] was 4400 µM and the Kd [5, 12] was 1050 µM.
“W183A: GBP single mutant constructed in the allosterically signaling construct 255C” gave a Kd [5, 18] of 20 µM.
In the case of “P294C: E. coli GBP single cysteine mutant in the hinge region, fluorophore conjugated”, the “R: ratio” value ([7]; IANBD conjugate) is reported as 1.0, the “R: ratio” value ([7]; acrylodan conjugate) is reported as 0.9 and the Kd [4, 16] is reported as 1 µM. The Kd [5, 17] was 1 µM.
In the case of “V296C: E. coli GBP single cysteine mutant in the hinge region, fluorophore conjugated”, the “R: ratio” value ([7]; IANBD conjugate) is reported as 0.7, the “R: ratio” value ([7]; acrylodan conjugate) is reported as 1.0 and the Kd [4, 14] is reported as 0.3 µM. It also gave a Kd [5, 15] of 0.1 µM.
“D154A W183A: E. coli GBP double mutant in a 255C background” showed a Kd ([5]; 255C background, read-out: binding constant) of 7200 µM, a Kd [5, 12] of 7200 µM and a Kd ([5]; glucose, read-out: binding constant) of 7200 µM.
With D154A: E. coli GBP binding-site mutant the Kd [9] was 140 µM, the Kd [1] was 2200 µM and the Kd [2] was 1550 µM. It also gave a Kd [3] of 24000 µM, a Kd [4, 11] of 41 µM and a Kd [5, 12] of 11.5 µM.
